{
  "source": "ChEMBL document CHEMBL2029330",
  "about": "(Bioorg Med Chem Lett, 2012)",
  "key": {"[1]": {"assay": "Aqueous solubility of the compound at pH 7.4", "assay_type": "physicochemical", "details": "aqueous medium"}, "in vitro": {"assay": "in vitro", "details": "human, hepatocytes"}, "[2]": {"assay": "Oral bioavailability in dog", "assay_type": "ADME, organism-based, Canis lupus familiaris", "details": "in vivo"}, "[3]": {"assay": "Volume of distribution at steady state in dog", "assay_type": "ADME, organism-based, Canis lupus familiaris", "details": "in vivo, read-out: Vdss"}, "[4]": {"assay": "Oral bioavailability in rat", "assay_type": "ADME, organism-based", "details": "in vivo"}, "[5]": {"assay": "Volume of distribution at steady state in rat", "assay_type": "ADME, organism-based", "details": "in vivo, read-out: Vdss"}, "[6]": {"assay": "Clearance in dog", "assay_type": "ADME, organism-based, Canis lupus familiaris", "details": "in vivo"}, "[7]": {"assay": "Clearance in rat", "assay_type": "ADME, organism-based", "details": "in vivo"}, "[8]": {"assay": "Half life in rat", "assay_type": "ADME, organism-based", "details": "in vivo"}, "[9]": {"assay": "Half life in dog", "assay_type": "ADME, organism-based, Canis lupus familiaris", "details": "in vivo"}, "[10]": {"assay": "Lipophilicity, log D of the compound at pH 7.4", "assay_type": "physicochemical", "details": "buffer"}, "[11]": {"assay": "Apparent permeability of the compound from apical to basolateral side across human Caco2 cells at 10 uM", "assay_type": "ADME, cell-based", "details": "Caco-2"}, "[12]": {"assay": "Apparent permeability of the compound from basolateral to apical side across human Caco2 cells at 10 uM", "assay_type": "ADME, cell-based", "details": "Caco-2"}, "[13]": {"assay": "Dissociation constant, pKa of the compound", "assay_type": "physicochemical"}},
  "data": [
    {"smiles": "Cc1ccc(NC(=O)c2ccnc(N3CCOCC3)c2)cc1-n1cnc2ccc(N3CCN(C)CC3)cc2c1=O", "values": [
      {"measurement": "solubility", "setting": "[1]", "value": 300, "unit": "µM"},
      {"measurement": "hepatocyte CLint", "setting": "in vitro", "value": 17, "unit": "µL/min/1e6 cells"}
    ]},
    {"smiles": "Cc1ccc(NC(=O)c2ccnc(N3CCOCC3)c2)cc1-n1c(C)nc2ccc(N3CCN(C)CC3)cc2c1=O", "values": [
      {"measurement": "solubility", "setting": "[1]", "value": 300, "unit": "µM"}
    ]},
    {"smiles": "Cc1ccc(NC(=O)c2cccc(N3CCOCC3)c2)cc1-n1cnc2ccc(N3CCN(C)CC3)cc2c1=O", "values": [
      {"measurement": "solubility", "setting": "[1]", "value": 300, "unit": "µM"}
    ]},
    {"smiles": "Cc1ccc(NC(=O)c2ccccc2)cc1-n1cnc2ccc(N3CCN(C)CC3)cc2c1=O", "values": [
      {"measurement": "hepatocyte CLint", "setting": "in vitro", "value": 6, "unit": "µL/min/1e6 cells"}
    ]},
    {"smiles": "COc1ccccc1C(=O)Nc1ccc(C)c(-n2cnc3ccc(N4CCN(C)CC4)cc3c2=O)c1", "values": [
      {"measurement": "hepatocyte CLint", "setting": "in vitro", "value": 5, "unit": "µL/min/1e6 cells"}
    ]},
    {"smiles": "Cc1ccc(NC(=O)c2cccc(C#N)c2)cc1-n1cnc2ccc(N3CCN(C)CC3)cc2c1=O", "values": [
      {"measurement": "hepatocyte CLint", "setting": "in vitro", "value": "< 3", "unit": "µL/min/1e6 cells"}
    ]},
    {"smiles": "Cc1ccc(NC(=O)c2ccc(C#N)cc2)cc1-n1cnc2ccc(N3CCN(C)CC3)cc2c1=O", "values": [
      {"measurement": "bioavailability", "setting": "[2]", "value": 53, "unit": "%"},
      {"measurement": "Vd", "setting": "[3]", "value": 7.8, "unit": "L/kg"},
      {"measurement": "bioavailability", "setting": "[4]", "value": 29, "unit": "%"},
      {"measurement": "Vd", "setting": "[5]", "value": 4.8, "unit": "L/kg"}
    ]},
    {"smiles": "Cc1ccc(NC(=O)c2ccccc2F)cc1-n1cnc2ccc(N3CCN(C)CC3)cc2c1=O", "values": [
      {"measurement": "hepatocyte CLint", "setting": "in vitro", "value": 7, "unit": "µL/min/1e6 cells"}
    ]},
    {"smiles": "Cc1ccc(NC(=O)c2cccc(F)c2)cc1-n1cnc2ccc(N3CCN(C)CC3)cc2c1=O", "values": [
      {"measurement": "hepatocyte CLint", "setting": "in vitro", "value": 11, "unit": "µL/min/1e6 cells"}
    ]},
    {"smiles": "Cc1ccc(NC(=O)c2ccno2)cc1-n1cnc2ccc(N3CCN(C)CC3)cc2c1=O", "values": [
      {"measurement": "hepatocyte CLint", "setting": "in vitro", "value": 5, "unit": "µL/min/1e6 cells"}
    ]},
    {"smiles": "Cc1ccc(NC(=O)c2cscn2)cc1-n1cnc2ccc(N3CCN(C)CC3)cc2c1=O", "values": [
      {"measurement": "hepatocyte CLint", "setting": "in vitro", "value": 7, "unit": "µL/min/1e6 cells"}
    ]},
    {"smiles": "Cc1ccc(NC(=O)c2cncs2)cc1-n1cnc2ccc(N3CCN(C)CC3)cc2c1=O", "values": [
      {"measurement": "hepatocyte CLint", "setting": "in vitro", "value": "< 3", "unit": "µL/min/1e6 cells"}
    ]},
    {"smiles": "Cc1ccc(C(=O)Nc2ccon2)cc1-n1cnc2ccc(N3CCN(C)CC3)cc2c1=O", "values": [
      {"measurement": "bioavailability", "setting": "[2]", "value": 20, "unit": "%"},
      {"measurement": "clearance", "setting": "[6]", "value": 19, "unit": "mL/min/kg"},
      {"measurement": "Vd", "setting": "[3]", "value": 3.7, "unit": "L/kg"},
      {"measurement": "clearance", "setting": "[7]", "value": 17, "unit": "mL/min/kg"},
      {"measurement": "bioavailability", "setting": "[4]", "value": 41, "unit": "%"},
      {"measurement": "half-life", "setting": "[8]", "value": 1.7, "unit": "h"},
      {"measurement": "half-life", "setting": "[9]", "value": 4, "unit": "h"},
      {"measurement": "Vd", "setting": "[5]", "value": 2.5, "unit": "L/kg"}
    ]},
    {"smiles": "Cc1ccc(C(=O)NC2CC2)cc1-n1cnc2ccc(N3CCN(C)CC3)cc2c1=O", "note": "[AZD-6703]", "values": [
      {"measurement": "bioavailability", "setting": "[2]", "value": 68, "unit": "%"},
      {"measurement": "clearance", "setting": "[6]", "value": 24, "unit": "mL/min/kg"},
      {"measurement": "Vd", "setting": "[3]", "value": 3.3, "unit": "L/kg"},
      {"measurement": "clearance", "setting": "[7]", "value": 26, "unit": "mL/min/kg"},
      {"measurement": "bioavailability", "setting": "[4]", "value": 49, "unit": "%"},
      {"measurement": "half-life", "setting": "[9]", "value": 1.7, "unit": "h"},
      {"measurement": "logD", "setting": "[10]", "value": 1.6},
      {"measurement": "Papp A→B at 10 µM", "setting": "[11]", "value": 6, "unit": "×10⁻⁶ cm/s"},
      {"measurement": "Papp B→A at 10 µM", "setting": "[12]", "value": 11, "unit": "×10⁻⁶ cm/s"},
      {"measurement": "hepatocyte CLint", "setting": "in vitro", "value": 2, "unit": "µL/min/1e6 cells"},
      {"measurement": "Vd", "setting": "[5]", "value": 1.9, "unit": "L/kg"},
      {"measurement": "pKa", "setting": "[13]", "value": 7.6}
    ]}
  ]
}
